In brackets after ≈: the same amount, converted by molar mass. Values belong to the compound of their own block, whether it stands above or below them.
Key:
Format in all cases: functional
Aspergillus niger [1] = assay: Antifungal activity against Aspergillus niger assessed as zone of inhibition by disc diffusion method
Candida albicans [2] = assay: Antifungal activity against Candida albicans assessed as diameter of zone inhibition by disc diffusion method
Candida tropicalis = assay: Antifungal activity against Candida tropicalis assessed as inhibition of fungal growth
Aspergillus niger [3] = assay: Antifungal activity against Aspergillus niger assessed as inhibition of fungal growth
Candida albicans [4] = assay: Antifungal activity against Candida albicans assessed as zone of inhibition by disc diffusion method
Saccharomyces cerevisiae [5] = assay: Antimicrobial activity against Saccharomyces cerevisiae assessed as zone of inhibition by disc diffusion method
Candida albicans [6] = assay: Antifungal activity against Candida albicans assessed as zone of inhibition by serial dilution and disc diffusion method
Saccharomyces cerevisiae [7] = assay: Antimicrobial activity against Saccharomyces cerevisiae assessed as zone of inhibition
Candida albicans [8] = assay: Antifungal activity against Candida albicans

SMILES: O=c1c(C(O)c2ccccc2)c(SCc2ccccc2)[nH]c2nc(-c3ccccc3)c(-c3ccccc3)n12 (configuration not stated)
inhibition zone (IZ) (Aspergillus niger [1]): 15 mm

SMILES: CC1=NN(c2ccccc2)C2N=C3SCCN3C(c3cccc(Cl)c3)C12 (configuration not stated)
inhibition zone (IZ) (Aspergillus niger [1]): 24 mm

SMILES: CC1=CC2C(C#N)CC(C(=O)c3ccc([N+](=O)[O-])cc3)N2C=N1 (configuration not stated)
inhibition zone (IZ) (Candida albicans [2]): 24 mm

MIC (Candida tropicalis): 97.3 µM (≈ 31.8 µg/mL)
MIC (Aspergillus niger [3]): 97.3 µM (≈ 31.8 µg/mL)
SMILES: CN(C)c1ccc(-c2cc(-c3cnc(Cl)cn3)nc(N)n2)cc1

SMILES: CC1=NN2C(C(=O)c3ccc(C)cc3)C3C(=O)N(c4ccccc4)C(=O)C3C2c2ccccc21 (configuration not stated)
inhibition zone (IZ) (Candida albicans [2]): 18 mm

MIC (Candida tropicalis): 97.3 µM (≈ 31 µg/mL)
MIC (Aspergillus niger [3]): 97.3 µM (≈ 31 µg/mL)
SMILES: Nc1nc(-c2ccc(Cl)cc2)cc(-c2cnc(Cl)cn2)n1

SMILES: O=[N+]([O-])c1ccc(/C=N/c2ncnc3[nH]ccc23)cc1
inhibition zone (IZ) (Candida albicans [4]): 15 mm
inhibition zone (IZ) (Saccharomyces cerevisiae [5]): 13 mm

MIC (Candida tropicalis): 110 µM (≈ 32 µg/mL)
MIC (Aspergillus niger [3]): 110 µM (≈ 32 µg/mL)
SMILES: Nc1nc(-c2cnc(Cl)cn2)cc(-c2cccs2)n1

MIC (Candida tropicalis): 110 µM (≈ 31.4 µg/mL)
MIC (Aspergillus niger [3]): 110 µM (≈ 31.4 µg/mL)
SMILES: Nc1nc(-c2cccnc2)cc(-c2cnc(Cl)cn2)n1

SMILES: COC(=O)c1c(C(=O)OC)c2c3ccccc3c(C)nn2c1C(=O)c1ccc(C)cc1
inhibition zone (IZ) (Candida albicans [2]): 18 mm

SMILES: O=c1c(C(O)c2ccccc2)c2sc(S)c(-c3ccccc3)n2c2nc(-c3ccccc3)c(-c3ccccc3)n12 (configuration not stated)
inhibition zone (IZ) (Aspergillus niger [1]): 15 mm

MIC (Candida tropicalis): 45.4 µM (≈ 16 µg/mL)
MIC (Aspergillus niger [3]): 45.4 µM (≈ 16 µg/mL)
SMILES: Nc1nc(-c2cnc(Cl)cn2)cc(-c2ccc(Cl)cc2Cl)n1

SMILES: Cc1ccc(C(=O)C2C3C(=O)N(c4ccccc4)C(=O)C3C3C=CC=NN32)cc1 (configuration not stated)
inhibition zone (IZ) (Candida albicans [2]): 18 mm

SMILES: CCC(C)N1C=NC2Oc3[nH]c(=O)[nH]c(=O)c3C(c3ccc(OC)cc3)C2C1=N (configuration not stated)
inhibition zone (IZ) (Aspergillus niger [1]): 10 mm

SMILES: C(=N\c1ncnc2[nH]ccc12)/c1ccccc1
inhibition zone (IZ) (Candida albicans [4]): 15 mm
inhibition zone (IZ) (Saccharomyces cerevisiae [5]): 13 mm

SMILES: COc1ccccc1/C=N/Nc1ncnc2[nH]ccc12
inhibition zone (IZ) (Candida albicans [6]): 30 mm

SMILES: COc1ccc(/C=N/Nc2ncnc3[nH]ccc23)cc1OC
inhibition zone (IZ) (Saccharomyces cerevisiae [7]): 24 mm

SMILES: Cc1ccc(C(=O)C2CC(C#N)C3C=CC=NN23)cc1 (configuration not stated)
inhibition zone (IZ) (Candida albicans [2]): 18 mm

MIC (Candida tropicalis): 110 µM (≈ 31.4 µg/mL)
MIC (Aspergillus niger [3]): 110 µM (≈ 31.4 µg/mL)
SMILES: Nc1nc(-c2ccncc2)cc(-c2cnc(Cl)cn2)n1

SMILES: CC1=NN(c2ccccc2)C2N=C3SCCN3C(c3ccccc3[N+](=O)[O-])C12 (configuration not stated)
inhibition zone (IZ) (Aspergillus niger [1]): 24 mm

SMILES: CN(C)c1ccc(/C=N/c2c(N)n(Cc3ccccc3)c(=O)[nH]c2=O)cc1
inhibition zone (IZ) (Candida albicans [4]): 10 mm

SMILES: Cc1ccc(C(=O)C2CC(C#N)C3c4ccccc4C=NN23)cc1 (configuration not stated)
inhibition zone (IZ) (Candida albicans [2]): 18 mm

SMILES: CC1=CC2C(C#N)CC(C(=O)c3ccc(Br)cc3)N2C=N1 (configuration not stated)
inhibition zone (IZ) (Candida albicans [2]): 22 mm

SMILES: Fc1ccc(/C=N/c2ncnc3[nH]ccc23)cc1
inhibition zone (IZ) (Candida albicans [4]): 15 mm
inhibition zone (IZ) (Saccharomyces cerevisiae [5]): 13 mm

MIC (Candida tropicalis): 110 µM (≈ 31.8 µg/mL)
MIC (Aspergillus niger [3]): 110 µM (≈ 31.8 µg/mL)
SMILES: Nc1nc(Cc2ccco2)cc(-c2cnc(Cl)cn2)n1

SMILES: CCOC(=O)c1c(C(=O)OCC)c2cc(C)ncn2c1C(=O)c1ccc([N+](=O)[O-])cc1
inhibition zone (IZ) (Candida albicans [2]): 28 mm

SMILES: O=[N+]([O-])c1ccccc1/C=N/c1ncnc2[nH]ccc12
inhibition zone (IZ) (Saccharomyces cerevisiae [5]): 13 mm

SMILES: CC1=NN(c2ccccc2)C2N=C3SCCN3C(c3ccccc3Cl)C12 (configuration not stated)
inhibition zone (IZ) (Aspergillus niger [1]): 24 mm

SMILES: COc1ccc(C2c3c([nH]c(=O)[nH]c3=O)OC3N=CN(C(=S)Nc4ccccc4)C(=N)C32)cc1 (configuration not stated)
inhibition zone (IZ) (Aspergillus niger [1]): 10 mm

MIC (Candida tropicalis): 107 µM (≈ 35.2 µg/mL)
MIC (Aspergillus niger [3]): 107 µM (≈ 35.2 µg/mL)
SMILES: COc1cc(-c2cc(-c3cnc(Cl)cn3)nc(N)n2)ccc1O

SMILES: COc1ccc(C2c3c([nH]c(=O)[nH]c3=O)OC3N=CN(c4ccccc4N)C(=N)C32)cc1 (configuration not stated)
inhibition zone (IZ) (Aspergillus niger [1]): 10 mm

MIC (Candida albicans [8]): 250 µg/mL (≈ 654 µM)
SMILES: O=C(CN1CCn2c(nnc2C(F)(F)F)C1)Nc1nc2ccccc2s1

SMILES: CCOC(=O)c1cc(C(=O)c2ccc(C)cc2)n2nc(C)c3ccccc3c12
inhibition zone (IZ) (Candida albicans [2]): 18 mm

SMILES: Fc1cccc(/C=N/c2ncnc3[nH]ccc23)c1
inhibition zone (IZ) (Candida albicans [4]): 15 mm
inhibition zone (IZ) (Saccharomyces cerevisiae [5]): 21 mm

MIC (Candida tropicalis): 110 µM (≈ 31.4 µg/mL)
MIC (Aspergillus niger [3]): 110 µM (≈ 31.4 µg/mL)
SMILES: Nc1nc(-c2ccccn2)cc(-c2cnc(Cl)cn2)n1

SMILES: Fc1ccccc1/C=N/c1ncnc2[nH]ccc12
inhibition zone (IZ) (Candida albicans [4]): 15 mm
inhibition zone (IZ) (Saccharomyces cerevisiae [5]): 13 mm

SMILES: Cc1ccc(C2c3c([nH]c(=O)[nH]c3=O)OC(NC(=O)/C=C/C(=O)O)C2C#N)cc1 (configuration not stated)
inhibition zone (IZ) (Aspergillus niger [1]): 10 mm

SMILES: O=[N+]([O-])c1cccc(/C=N/c2ncnc3[nH]ccc23)c1
inhibition zone (IZ) (Candida albicans [4]): 15 mm
inhibition zone (IZ) (Saccharomyces cerevisiae [5]): 13 mm

SMILES: CC1=NN(c2ccccc2)C2N=C3SCCN3C(c3ccc(F)cc3)C12 (configuration not stated)
inhibition zone (IZ) (Aspergillus niger [1]): 24 mm

MIC (Candida albicans [8]): 0.25 µg/mL (≈ 0.56 µM)
SMILES: O=c1cc[nH]c(=O)n1N=C1CC(c2ccc(Cl)cc2)SC(c2ccc(Cl)cc2)C1 (configuration not stated)

MIC (Candida tropicalis): 97.3 µM (≈ 32 µg/mL)
MIC (Aspergillus niger [3]): 97.3 µM (≈ 32 µg/mL)
SMILES: Nc1nc(-c2ccc([N+](=O)[O-])cc2)cc(-c2cnc(Cl)cn2)n1

SMILES: Cc1ccc(C2c3c([nH]c(=O)[nH]c3=O)OC(N)C2C#N)cc1 (configuration not stated)
inhibition zone (IZ) (Aspergillus niger [1]): 10 mm

MIC (Candida tropicalis): 110 µM (≈ 30.1 µg/mL)
MIC (Aspergillus niger [3]): 110 µM (≈ 30.1 µg/mL)
SMILES: Nc1nc(-c2cnc(Cl)cn2)cc(-c2ccc[nH]2)n1

SMILES: COC(=O)c1c(C(=O)OC)c2c3ccccc3cnn2c1C(=O)c1ccc(C)cc1
inhibition zone (IZ) (Candida albicans [2]): 18 mm

SMILES: CC1=NN2C(C(=O)c3ccc(C)cc3)CC(C#N)C2c2ccccc21 (configuration not stated)
inhibition zone (IZ) (Candida albicans [2]): 18 mm

MIC (Candida tropicalis): 97.3 µM (≈ 29 µg/mL)
MIC (Aspergillus niger [3]): 97.3 µM (≈ 29 µg/mL)
SMILES: Cc1ccc(-c2cc(-c3cnc(Cl)cn3)nc(N)n2)cc1

SMILES: CC1=NN(c2ccccc2)C2N=C3SCCN3C(c3cccc([N+](=O)[O-])c3)C12 (configuration not stated)
inhibition zone (IZ) (Aspergillus niger [1]): 24 mm

SMILES: CCOC(=O)c1c(C(=O)OCC)c2cc(C)ncn2c1C(=O)c1ccc(OC)cc1
inhibition zone (IZ) (Candida albicans [2]): 24 mm

SMILES: CCOC(=O)c1c(C(=O)OCC)c2cc(C)ncn2c1C(=O)c1ccc(Br)cc1
inhibition zone (IZ) (Candida albicans [2]): 22 mm

SMILES: COc1ccc(C2c3c([nH]c(=O)[nH]c3=O)OC3N=CN(c4cc(C)ccn4)C(=N)C32)cc1 (configuration not stated)
inhibition zone (IZ) (Aspergillus niger [1]): 10 mm

SMILES: CC1=NN(c2ccccc2)C2N=C3SCCN3C(c3ccccc3O)C12 (configuration not stated)
inhibition zone (IZ) (Aspergillus niger [1]): 24 mm

MIC (Candida albicans [8]): 250 µg/mL
SMILES: Cl.FC(F)(F)c1nnc2n1CCNC2

SMILES: Cc1ccc(C(=O)C2C3C(=O)N(c4ccccc4)C(=O)C3C3c4ccccc4C=NN23)cc1 (configuration not stated)
inhibition zone (IZ) (Candida albicans [2]): 18 mm

MIC (Candida tropicalis): 97.3 µM (≈ 29.2 µg/mL)
MIC (Aspergillus niger [3]): 97.3 µM (≈ 29.2 µg/mL)
SMILES: Nc1nc(-c2ccc(O)cc2)cc(-c2cnc(Cl)cn2)n1

SMILES: COC(=O)c1c(C(=O)OC)c2cccnn2c1C(=O)c1ccc(C)cc1
inhibition zone (IZ) (Candida albicans [2]): 18 mm

SMILES: CCOC(=O)c1cc(C(=O)c2ccc(C)cc2)n2ncccc12
inhibition zone (IZ) (Candida albicans [2]): 18 mm

SMILES: COc1ccc(C(=O)C2CC(C#N)C3C=C(C)N=CN23)cc1 (configuration not stated)
inhibition zone (IZ) (Candida albicans [2]): 23 mm

SMILES: CCOC(=O)c1cc(C(=O)c2ccc(C)cc2)n2ncc3ccccc3c12
inhibition zone (IZ) (Candida albicans [2]): 18 mm

MIC (Candida tropicalis): 97.3 µM (≈ 30.5 µg/mL)
MIC (Aspergillus niger [3]): 97.3 µM (≈ 30.5 µg/mL)
SMILES: COc1ccc(-c2cc(-c3cnc(Cl)cn3)nc(N)n2)cc1

SMILES: CN(C)c1ccc(/C=N/c2ncnc3[nH]ccc23)cc1
inhibition zone (IZ) (Candida albicans [4]): 15 mm
inhibition zone (IZ) (Saccharomyces cerevisiae [5]): 13 mm

MIC (Candida tropicalis): 97.3 µM (≈ 29.4 µg/mL)
MIC (Aspergillus niger [3]): 97.3 µM (≈ 29.4 µg/mL)
SMILES: Nc1nc(-c2ccc(F)cc2)cc(-c2cnc(Cl)cn2)n1

SMILES: COc1ccc(C2c3c([nH]c(=O)[nH]c3=O)OC3N=CN(C(N)=O)C(=N)C32)cc1 (configuration not stated)
inhibition zone (IZ) (Aspergillus niger [1]): 10 mm

SMILES: CC1=N/C(=C\c2ccc(Cl)cc2)C(=O)N1c1c(N)n(C)c(=O)n(C)c1=O
inhibition zone (IZ) (Candida albicans [4]): 10 mm

MIC (Candida tropicalis): 101 µM (≈ 34.6 µg/mL)
MIC (Aspergillus niger [3]): 101 µM (≈ 34.6 µg/mL)
SMILES: COc1ccc(-c2cc(-c3cnc(Cl)cn3)nc(N)n2)c(OC)c1

MIC (Candida tropicalis): 97.3 µM (≈ 27.6 µg/mL)
MIC (Aspergillus niger [3]): 97.3 µM (≈ 27.6 µg/mL)
SMILES: Nc1nc(-c2ccccc2)cc(-c2cnc(Cl)cn2)n1

MIC (Candida tropicalis): 50 µM (≈ 16 µg/mL)
MIC (Aspergillus niger [3]): 50 µM (≈ 16 µg/mL)
SMILES: Nc1nc(-c2cnc(Cl)cn2)cc(-c2ccc(F)cc2F)n1

SMILES: CN(C)C=O [DIMETHYLFORMAMIDE]
inhibition zone (IZ) (Candida albicans [2]): 16 mm
